# ChEMBL document CHEMBL1145939, “Analyses of activity for factor Xa inhibitors based on Monte Carlo simulations” (J Med Chem, 2003)
# Biological target: Coagulation factor X (Homo sapiens, UniProt P00742)
# Experiment: Inhibition of human Coagulation factor X was determined
# Chain of Coagulation factor X (P00742 41-179 limits assumed): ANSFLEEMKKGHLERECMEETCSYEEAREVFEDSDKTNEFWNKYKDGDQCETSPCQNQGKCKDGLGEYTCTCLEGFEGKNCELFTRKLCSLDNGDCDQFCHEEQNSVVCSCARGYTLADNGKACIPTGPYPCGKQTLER
# Chain of Coagulation factor X (P00742 235-488 limits assumed): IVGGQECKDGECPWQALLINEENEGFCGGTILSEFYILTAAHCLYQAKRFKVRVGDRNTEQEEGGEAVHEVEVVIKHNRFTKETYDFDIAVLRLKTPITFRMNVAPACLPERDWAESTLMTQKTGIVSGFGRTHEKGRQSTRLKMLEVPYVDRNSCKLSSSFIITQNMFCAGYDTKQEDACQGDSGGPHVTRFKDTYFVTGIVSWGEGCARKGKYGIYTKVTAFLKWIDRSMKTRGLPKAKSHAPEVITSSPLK
row,Ki [nM],SMILES
1,2100,Cc1c(F)c(Oc2cccc(CC(=O)C(C)C)c2)nc(Oc2cccc(C(=N)N)c2)c1F
2,1400,CC(=O)Cc1cccc(Oc2nc(Oc3cccc(C(=N)N)c3)c(F)c(C)c2F)c1
3,810,CN1CC(C)(C)N=C1c1cccc(Oc2cc(C(=O)O)cc(Oc3cc(C(=N)N)ccc3O)n2)c1
4,650,Cc1c(F)c(Oc2cccc(C(=N)N)c2)nc(Oc2cccc(N3CCCCC3)c2)c1F
